The values below are quoted from earlier work in patent US20030225101A1 (priority 2002, published 2003).

The conditions of data set [1]: oral administration.
In data set [2] the test system is isolated corpus cavernosum.

Consider `CCCc1nn(C)c2c(=O)[nH]c(-c3cc(S(=O)(=O)N4CCN(C)CC4)ccc3OCC)nc12` [sildenafil, 1-[4-ethoxy-3-(6,7-dihydro-1-methyl-7-oxo-3-propyl-1H-pyrazolo[4,3-d]pyrimidin-5-yl)phenylsulphonyl]-4-methylpiperazine], for which the absolute bioavailability entry in data set [1] is given as “about 40%”. Besides, the “direct relaxant effect on isolated corpus cavernosum” value in data set [2] is listed as “no direct relaxant effect”.
